From patent publication US20120101153A1, “ROCAGLAOL DERIVATIVES AS CARDIOPROTECTANT AGENTS AND AS ANTINEOPLASTIC AGENTS” (Universite De Strasbourg, priority 2008, published 2012)
Read-outs that look alike come from different tables or passages of the source.

What was measured:
[1] = test system: H9c2 cardiomyocytes
Protocol: (§1) H9c2 cells were plated for 24 h in 100 mm Petri dishes at 0,7×10^4 cells/cm^2. Next, the cells were washed and cultured for 12 h in glucose-free medium (Gibco, DMEM w-L-glutamine, w/o D-glucose, sodium pyruvate) supplemented with only 1% fetal calf serum. […] Cells were washed, and subsequently FACS analyses were performed.
(§2) Apoptosis was analysed by fluorescence-activated cell sorting analysis (FACS-Calibur, Becton-Dickinson Biosciences). 0,5×10^6 cells were harvested, washed with Annexin Binding Buffer (0,01 M HEPES, 0,14 M NaCl, 2,5 mM CaCl2) and labeled with annexin V (dilution 1:50) and propidium iodide (6,7 μg/ml). All assays were performed at least in triplicate, and the results were analyzed by BD Cell Quest Pro software (Becton-Dickinson Biosciences, Le Pont De Claix, France).

[2] = test system: Resistant MCF7 (MCF7R) cells; experiment: MTS assay, inhibition of cell proliferation, MCF7R; assay type: cell-based; conditions: Homo sapiens, 72 h
Source text: (§3) The medium was changed every 2-3 days.

[3] = test system: MCF7 (breast adenocarcinoma); experiment: MTS assay, inhibition of cell proliferation, MCF7; assay type: cell-based; conditions: Homo sapiens, read-out: Inhibition of cell proliferation (IC50)
Source text: as §3

[4] = test system: HL60 (promyeocytic leukaemia); experiment: MTS assay, inhibition of cell proliferation, HL60; conditions: Homo sapiens
Protocol: (§4) The human cell lines HL60 (promyeocytic leukaemia), MDA435 (breast ductal carcinoma; ATCC reference HBT129) and MDA231 (breast adenocarcinoma; ATCC reference HBT26) were obtained from ATCC. […] SK-OV3 cells (or OV3, ATCC reference HTB77) were kindly provided by NCI (Frederick, Md.).
(§5) The cell lines HCT116, HCT15, MCF7, MDA435, MDA231, PC3, OV3, HL60R and HL60 were grown in RPMI medium, in particular supplemented with 10% fetal calf serum, in the presence of penicillin, streptomycin and fungizone in 75 cm^2 flask under 5% CO2. […] The medium was changed every 2-3 days.
(§6) Cells were plated in 96-well tissue culture plates in 200 μl medium and cultured during 24 h before to be treated with compounds dissolved in DMSO (compound concentrations at a range of 0.5 nM to 10 μM) using a Biomek 2000 or 3000 (Beckman). Controls received the same volume of DMSO (1% final volume). After a 72 h exposure, MTS reagent (Promega) was added and incubated for 3 h at 37° C. The absorbance was then monitored at 490 nm and results were expressed as the value [1-(OD490 treated/OD490 control)×100] corresponding to the percentage of inhibition of cell proliferation.

[5] = test system: HepG2 (hepatocarcinoma); experiment: MTS assay, inhibition of cell proliferation, HepG2; assay type: cell-based; conditions: Homo sapiens, read-out: Inhibition of cell proliferation (IC50)
Protocol: Experiments were performed in duplicate (n=3).

[6] = test system: KB (epidermoid carcinoma); experiment: MTS assay, inhibition of cell proliferation, KB; conditions: Homo sapiens
Protocol: The human cell lines KB (epidermoid carcinoma) and HepG2 (hepatocarcinoma) were obtained from ECACC (Salisbury, UK) and grown in D-MEM medium supplemented with 10% fetal calf serum, in the presence of penicilline, streptomycine and fungizone in 75 cm^2 flask under 5% CO2.
as §6

[7] = test system: HCT15 (colon adenocarcinoma); experiment: MTS assay, inhibition of cell proliferation, HCT15; assay type: cell-based; conditions: Homo sapiens, read-out: Inhibition of cell proliferation (IC50)
Source text: as §3

[8] = test system: HCT116 (colon adenocarcinoma); experiment: MTS assay, inhibition of cell proliferation, HCT116; conditions: Homo sapiens
Protocol: (§7) The human cell lines HCT116 (colon adenocarcinoma), PC3 (prostate adenocarcinoma) and HCT15 (colon adenocarcinoma) were obtained from ECACC (Wiltshire, UK).
(§8) The cell lines HCT116, HCT15, MCF7, MDA435, MDA231, PC3, OV3, HL60R and HL60 were grown in RPMI medium, in particular supplemented with 10% fetal calf serum, in the presence of penicillin, streptomycin and fungizone in 75 cm^2 flask under 5% CO2.
as §6

[9] = test system: mice; experiment: In vivo cardioprotection against doxorubicin in mice
Protocol: Administration of FL3 (0.1 mg/kg i.p., 2×/day for 4 days) protected mice from the cardiotoxicity induced by doxorubicine (20 mg/kg i.p.): they observed a 70% survival rate for the mice that received FL3. The survival rate for the mouse who received the vehicle was only 30% (see Table 3).

[10] = test system: SK-OV3 cells (OV3); experiment: MTS assay, cytotoxicity, OV3; conditions: Homo sapiens, SK-OV-3, read-out: Cytotoxicity (IC50)
Protocol: as §4, §5, §6

[11] = test system: MDA231 (breast adenocarcinoma); experiment: MTS assay, cytotoxicity, MDA231; conditions: Homo sapiens, MDA-MB-231, read-out: Cytotoxicity (IC50)
Protocol: as §4, §5, §6

[12] = test system: PC3 (prostate adenocarcinoma); experiment: MTS assay, cytotoxicity, PC3; conditions: Homo sapiens, read-out: Cytotoxicity (IC50)
Protocol: as §7, §8, §6

[13] = test system: H9c2 cardiomyocytes; conditions: H9c2
Protocol: as §3, §1, §2

[14] = test system: MDA435 (breast ductal carcinoma); experiment: MTS assay, cytotoxicity, MDA435; conditions: Homo sapiens, MDA435, read-out: Cytotoxicity (IC50)
Protocol: as §4, §5, §6

[15] = test system: HL60R (resistant HL60 cells); experiment: MTS assay, cytotoxicity, HL60R; conditions: Homo sapiens, read-out: Cytotoxicity (IC50)
Protocol: as §8, §6

[16] = cumulative dose of doxorubicin 700 mg/m^2; cited from earlier work
[17] = MTS, Table 1, read-out: Inhibition of cell proliferation (IC50)
[18] = HL-60, 72 h, read-out: Inhibition of cell proliferation (IC50)
[19] = 72 h, read-out: Inhibition of cell proliferation (IC50)
[20] = HCT-15, HCT15, MTS, 72 h, Table 1
[21] = HCT-116, 72 h, read-out: Inhibition of cell proliferation (IC50)
[22] = HL-60, read-out: Cytotoxicity (IC50)

Structure (SMILES) | IC50 [2, 17] [nM] | IC50 ([3]; MCF7, MTS, 72 h, Table 1) [nM] | IC50 [4, 18] [nM] | IC50 ([5]; HepG2, MTS, 72 h, Table 1) [nM] | IC50 [6, 19] [nM] | IC50 [7, 20] [nM] | IC50 [8, 21] [nM] | IC50 [4, 22] [nM] | IC50 [10] [nM] | IC50 [11] [nM] | IC50 [12] [nM] | IC50 [14] [nM] | also measured
CCc1cc(-c2oncc2-c2ccc(OC)cc2)c(O)cc1OC [KRIBB3, reference compound] |  |  |  |  |  |  |  |  |  |  |  |  | Cytotoxicity of KRIBB3 on cardiomyocytes ([1]; KRIBB3 1 μM, 1 h): induced a cytotoxicity
COc1ccc([C@@]23Oc4cc(OC)cc(OC)c4[C@]2(O)[C@H](O)C[C@H]3c2ccccc2)cc1 (racemic) [FL1, rocaglaol] | 4 | 4 | 3 | 70 | 2 | 6 | 6 |  |  |  |  |  | 
COc1ccc([C@@H]2C[C@@H](O)[C@@]3(O)c4c(OC)cc(OC)cc4O[C@@]23c2ccccc2)cc1 [FL4] | > 10000 | > 10000 | > 10000 | > 10000 | > 10000 | > 10000 | > 10000 |  |  |  |  |  | 
COc1cc(OC)c2c(c1)O[C@@]1(c3ccc(Br)cc3)[C@H](c3ccccc3)C[C@@H](O)[C@@]21O (racemic) [FL3, bromo-demethoxy-rocaglaol] |  |  | < 1 |  | < 1 |  | < 1 | 5.5 | 8.5 | 3.8 | 17 | 8.7 | Survival rate ([9]; Doxorubicin (1 x, 20 mg/kg i.p.) + FL3 (8 x, 0.1 mg/kg i.p.)): 70%; Survival rate ([9]; FL3 alone (8 x, 0.1 mg/kg i.p.)): 100%; IC50 ([2]; read-out: Inhibition of cell proliferation (IC50)): < 1 nM; IC50 ([3]; MCF7, 72 h): 1 nM; IC50 ([5]; HepG2, 72 h): 4 nM; IC50 ([6]; read-out: Cytotoxicity (IC50)): 15 nM; Effect on KRIBB3-induced cytotoxicity ([1]; co-treatment FL3 100 nM with KRIBB3 1 μM): significantly alleviated; Effect on KRIBB3 worsening of doxorubicin cytotoxicity ([1]; doxorubicin, KRIBB3 and FL3 all together): reversed; Diminution of the apoptosis induced by doxorubicin ([13]; 1 nM FL3, 1 μM doxorubicin): 70%; Alleviation of the apoptosis induced by doxorubicin ([13]; 50 nM FL3, 20 times superior concentration of doxorubicin): 61%; Concentration of maximum inhibition of doxorubicin-induced apoptosis ([13]; FIG. 8B): 1 nM; IC50 ([7]; HCT-15, 72 h): 1 nM; IC50 ([8]; HCT-116, read-out: Cytotoxicity (IC50)): 7.6 nM; IC50 [15]: 4.5 nM
COc1cccc2c1C(=O)c1c(O)c3c(c(O)c1C2=O)C[C@@](O)(C(=O)CO)C[C@@H]3O[C@H]1C[C@H](N)[C@H](O)[C@H](C)O1 [Doxorubicin, doxorubicin, reference compound] | 58 | 12 | 13 | 240 | 1 | 81 | 6 | 30 | 41 | 0.047 | 186 | 3.5 | Survival rate ([9]; Doxorubicin alone (1 x, 20 mg/kg i.p.)): 30%; Risk of developing congestive heart failure [16]: 48%; Apoptosis induced (total apoptotic cells) ([13]; 1 μM doxorubicin for 14 h): 32%
